Source: patent US5726156A, “Cytokine regulatory agents and methods of use in pathologies and conditions associated with altered cytokine levels” (Trega Biosciences, Inc., priority 1995, dated 1998)
“And” between values parts separate entries of the source, which are not always exact repeats. Equal values may be shown once. Square brackets hold non-standard residues; d marks the D form. Peptide text beside a SMILES is read from it.

Key:
TNF-α [1] = assay: Reduction of LPS-induced TNF levels in mice (IP dosing); assay type: in vivo; conditions: 150 μg/mouse IP, one min before LPS 5 mg/kg IP
Procedure: Balb/c female mice weighing approximately 20 g were placed into two groups, a control group and a treated group. Five mg/kg of LPS in 0.9% saline was administered by intraperitoneal (IP) injection into the control mice. Mice in the treated group were first injected IP with 30 μg EX-2 or 150 μg EX-3 in saline, then, one min after EX-2 or EX-3 was administered, the mice received LPS as described for the control group.
Blood samples were collected from the orbital sinus of treated and control mice at various times up to four hr after LPS was administered. The plasma was separated by centrifugation at 3000×g for 5 min, then diluted with four volumes of 1× phosphate buffer saline (pH 7.4) containing 1% bovine serum albumin. A 100 μl sample of serum was assayed by ELISA for TNF-α (Genzyme; Cambridge Mass.).
The mean (+/- SEM) TNF-α level in six mice from each group was determined and the percent reduction in TNF levels was calculated.

[2] = system: Carageenan-induced paw swelling; assay: Carageenan-induced paw swelling; assay type: in vivo, mice; conditions: 1 μg/mouse; 2 hr time point
Procedure: Carageenan-induced paw swelling was induced using a modification of the methods of Hiltz and Lipton, Peptides 11:979-982 (1990); Vinegar et al., Fed. Proc. 46:118-126 (1987); and Vinegar et al., J. Pharmacol. Expt. Therap. 166:96-103 (1969), each of which is incorporated herein by reference. Briefly, adult female Balb/c mice were anesthetized by IP injection of 7 mg/kg ketoamine and 0.6 mg/kg rompun. Foot pad thickness was measured using a spring loaded micrometer (Swiss Precision Instruments). Foot pad thickness was expressed in units of 1/100 inch. After baseline measurements were obtained, mice were injected into a hind foot pad with either 0.2 ml physiologic saline (control) or varying doses of EX-2 or EX-3 in 0.2 ml saline (treated). The first injection was followed immediately by injection of 0.02 ml of 0.15% K-carageenan (Sigma Chemical Co.; St. Louis, Mo.).
Hind foot pad thickness was measured hourly for six hr, the change in thickness was determined and the percent reduction in swelling due to treatment with EX-2 was calculated.

LPS-induced lethality [3] = assay: LPS-induced lethality (IP dosing); assay type: in vivo, mice; conditions: 11 × 300 μg/mouse IP (3.3 mg), every 4 hr; 0.6 mg LPS
Procedure: These experiments were performed based on information reported by Rivier etal., Endocrinology 125:2800-2805 (1989), which is incorporated herein by reference. Adult female Balb/c mice were provided food and water ad libitum. Mice were injected IP every four hr for 40 hr with 30 to 300 μg EX-2, EX-3 or EX-4 in 0.2 ml saline (treated group) or with 0.2 ml saline, alone (control group) (10 mice per group). Immediately following the first injection, 0.6 mg LPS endotoxin in 0.2 ml saline was administered to each mouse. Following LPS injection, EX-2 or saline was administered to the treated mice or the control mice, respectively, every 4 hr for 36 hr.

LPS-induced fever = assay: LPS-induced temperature increase (fever); assay type: in vivo, rats; conditions: 150 μg/kg IP; 6 hr following LPS injection
Procedure: Male Wistar rats (45-75 days old) were placed in a temperature controlled room held at 26° C., which is thermoneutral for the normal body temperature of rats, and were maintained in the room with free access to food and water for 24 hr prior to testing. On the morning of the study, rats were marked for identification and weighed. The temperature of each rat was determined by placing the animal in a regulatory cage designed to minimize stress and inserting a temperature probe (YSI probe #402) 3-5 cm into the animal's rectum. The temperature was recorded 15 sec after the reading stabilized. Measurements were repeated 1 hr later to establish a baseline temperature for each rat.
After the baseline temperatures were established, rats were injected IP with saline, IL-1β or LPS endotoxin. Rats then were injected IP with either saline (control) or various concentrations of EX-2, EX-3, or EX-4 (treated). The temperature of the rats was measured every hr for 6 hr and the inhibition by EX-2, EX-3, or EX-4 of the rise in temperature due to IL-1β or LPS was determined.
In addition, treatment with 50 or 150 μg/kg EX-2 inhibited LPS-induced fever by 45% or 52%, respectively, when measured 6 hr following LPS injection. Furthermore, treatment with 150 μg/kg EX-3 or EX-4 inhibited LPS-induced fever by 57% and 52%, respectively (Table II).

[4] = system: arachidonic acid-induced ear swelling; assay: Arachidonic acid-induced ear swelling; assay type: in vivo, mice; conditions: 100 μg/mouse IP 30 min prior to AA; 60 min after AA
Procedure: Experiments were performed using female Balb/c mice weighing 18-23 grams. Saline or 100 μg EX-2 or EX-3 was administered IP, 30 min prior to topical application of arachidonic acid (AA). A 10 μl pipet was used to apply 10 μl AA solution (100 mg/ml ethanol; Calbiochem-Novabiochem; San Diego Calif.) to the inner and outer surfaces of the right ear of each mouse. Ten μl ethanol, alone, was applied to the inner and outer surface of the left ear of each mouse. Ear thickness was measured with a hand-held spring loaded caliper immediately before and 60 min after AA application. Increase in ear thickness was calculated by subtracting the change observed in the control ear from the change observed in AA-treated ear. The value for each group (saline and control) is the average of the swelling observed in the individual mice in each group. The percent reduction of swelling is based on the swelling observed in the saline control group.

[5] = system: morphine-induced respiratory depression; assay: Morphine-induced respiratory depression; assay type: in vivo, rabbits; conditions: 10 + 20 + 20 μg/kg/rabbit iv; end of experiment (80 min)
Procedure: Male Shelton rabbits (3-4 kg) were restrained and fitted around the thorax, just behind the front limbs, with a respiration transducer (Model F-RCT; Grass Instruments; Quincy Ma). The transducer was connected to a grass polygraph via an EKG cable. An intravenous line was established for drug administration by cannulating the marginal ear vein using a 25 G butterfly needle.
Rabbit breathing was allowed to stabilize, then morphine sulfate (2 mg/kg in 0.5 ml saline) was administered by intravenous (iv) injection and respiratory rate and depth were monitored for 10 min. A second dose of morphine was administered, then, after 10 min, EX-2 or EX-3 (10 μg/kg in 0.5 ml saline) was administered, iv, and rabbits were monitored for 20 min. Two additional doses of EX-2 or EX-3 (20 μg/kg in 1.0 ml saline) were administered at 20 min intervals, i.e., 40 min and 60 min after the first morphine injection.
Results were calculated as the percent change from baseline values and are expressed as the difference of the mean value of the treated group minus the mean value of the control group at the end of the experiment (80 min).

TNF-α [6] = assay: LPS-induced TNF-α levels, oral (gavage) dosing; assay type: in vivo, mice; conditions: one min before 0.1 mg LPS IP
Procedure: The ability of orally administered cytokine regulatory agents to reduce LPS-induced TNF-α levels also was examined. Balb/c female mice (20 g) were administered 150 μg or 300 μg EX-2, EX-3, EX-5 or EX-6 in 100 μl saline by gavage. Control mice received 100 μl saline, alone. One min later, 0.1 mg LPS was administered by IP injection. Samples were collected and TNF-α levels were determined as described in Example III, above.
The mean TNF-α levels in the mice from each group (n=9-20) was determined and the percent reduction in TNF-α levels was calculated.

LPS-induced lethality [7] = assay: LPS-induced lethality, oral (gavage) dosing; assay type: in vivo; conditions: control mice 0%
Procedure: The LPS-induced lethality studies were performed based on information reported by Rivier et al., supra, 1989. Adult female Balb/c mice were provided food and water ad libitum. Mice were administered 150 μg or 300 μg EX-2, EX-3, EX-5 or EX-6 in 100 μl saline by gavage every 4 hr for 40 hr (total doses of 1.65 mg and 3.3 mg, respectively). Control mice received 100 μl saline, alone. Immediately following the first dose of cytokine regulatory agent or saline, 0.6 mg LPS in 0.2 ml saline was administered by IP injection.

Structure (SMILES)	Reduction in TNF levels (TNF-α [1])	Reduction in Carageenan-induced Paw Swelling [2]	Inhibition of LPS-induced Lethality (increase in survival vs control) (LPS-induced lethality [3])	Reduction in LPS-induced Fever (LPS-induced fever)	Reduction in arachidonic acid-induced Ear Swelling [4]	Reduction in Morphine-induced Respiratory Depression [5]	percent reduction in TNF-α levels, oral dosing (TNF-α [6]; 150 μg by gavage)	percent reduction in TNF-α levels, oral dosing (TNF-α [6]; 300 μg by gavage)	survival after LPS, oral dosing (LPS-induced lethality [7]; 3.3 mg total (300 μg by gavage every 4 hr for 40 hr))	survival after LPS, oral dosing (LPS-induced lethality [7]; 1.65 mg total (150 μg by gavage every 4 hr for 40 hr))
CC(=O)N[C@H](C(=O)N[C@@H](CCC(N)=O)C(=O)N[C@@H](Cc1c[nH]cn1)C(=O)N[C@H](Cc1ccccc1)C(=O)N[C@@H](CCCNC(=N)N)C(=O)N[C@H](Cc1c[nH]c2ccccc12)C(=O)NCC(N)=O)C1CCCCC1 [EX-3, Ac-(cyclohexyl)Gly-Gln-His-(D) Phe-Arg- (D) Trp-Gly-NH2]	56%	49%	86%	57%	62%	65%	49%	40%	–	–
CC(=O)N[C@H](Cc1ccccc1)C(=O)N[C@@H](CCCNC(=N)N)C(=O)N[C@H](Cc1c[nH]c2ccccc12)C(N)=O [EX-4, Ac- (D) Phe-Arg-(D) Trp-NH2]	53%	–	75%	52%	–	–	–	–	–	–
CC(=O)N[C@@H](Cc1c[nH]cn1)C(=O)N[C@H](Cc1ccccc1)C(=O)N[C@@H](CCCNC(=N)N)C(=O)N[C@H](Cc1c[nH]c2ccccc12)C(=O)NCC(N)=O [EX-5, Ac-His- (D) Phe-Arg- (D) Trp-Gly-NH2] (Ac-H[dF]R[dW]G-NH2)	–	–	–	–	–	–	–	44%	63% and 44%	–
CC(=O)N[C@@H](Cc1c[nH]cn1)C(=O)N[C@H](Cc1ccccc1)C(=O)N[C@@H](CCCNC(=N)N)C(=O)N[C@H](Cc1c[nH]c2ccccc12)C(N)=O [EX-6, Ac-His-(D)Phe-Arg-(D)TrP-NH2]	–	–	–	–	–	–	–	–	–	68%
